Laboratory results: US20070154981A1, “Insulin-producing cells derived from stem cells” (THE BOARD of TRUSTEES of the LELAND STANFORD JUNIOR …, priority 2003, published 2007)

Test system: human NS cells
Experiment: Insulin content of IPCCs derived from human NS cells, by ELISA
Format: cell-based
From the text: Human NS cells from StemCells Inc. (Palo Alto, Calif.). Until stage 1, cells are maintained in neurospheres as described in Uchida et al, 2000, Proc Natl Acad Sci U S A. 2000 Dec. 19;97(26):14720-5. […]

CC1=C(/C=C/C(C)=C/C=C/C(C)=C/C(=O)O)C(C)(C)CCC1 [retinoic acid, all-trans-Retinoic acid]
insulin levels relative to levels found in human pancreatic islets (1 micromolar retinoic acid for 6 days, stage 2 IPCCs, ELISA): 0.1% | insulin production compared with cells cultured with SHH and retinoic acid (retinoic acid alone versus SHH and retinoic acid): higher level of insulin production
